Entries after “also recorded” stand apart in the source; their conditions may differ.

The test system of one data set is normal mice. Put plainly: memory formation in normal mice after weak or strong training (% Freezing, FIG. 1). The data set is classed as in vivo. The source says: FIG. 1 is a bar graph showing the results of drug-induced (partial) enhancement of memory in normal mice by rolipram, a prototypical phosphodiesterase (PDE) inhibitor. Five-day retention after weak training (2×) is lower than strong training (5×). Only memory after weak training is enhanced by bilateral hippocampal injections (1 :l) of rolipram immediately after training. Rolipram reduced the number of training sessions required to produce memory. % Freezing=% Observation time mice spent frozen/motionless.
These Active Hits were evaluated in vivo rodent models of memory formation. To do so efficiently, a new behavioral training protocol was validated, which logically was affected by upstream modulation of the CREB pathway. During initial stages of acquisition, repeated training trials lead to increased cAMP levels. At some point, cAMP levels pass a threshold, and activated PKA (catalytic subunit) is translocated to the nucleus, where it phosphorylates CREB directly or it yields a permissive state for the phosphorylation of CREB by a cofactor. In this context, phosphodiesterase (PDE) inhibitors act to increase cAMP levels beyond the threshold with fewer training trials, thereby producing more long-lasting memory with weaker training.

Another data set relates to human CREB RNA. The experiment in a line: human CREB bDNA assay. The data set is classed as cell-based. The source says: CREB 1 and CREB 3 oligos have identical sequence homology with both mouse and human. CREB 17 has a single base mismatch.
Data set [1] deals with CREB mRNA in Neuro2a cells. Put plainly: bDNA assay of CREB mRNA after transfection of CREB LNA antisense oligos (FIG. 3). It counts as cell-based, Mus musculus. As to conditions: higher concentration (0.5 :M). The method, then:
Detection of CREB mRNA with the bDNA Assay. Mus musculus Neuro2a cells were obtained from American Type Culture Collection (ATCC, Cat. No. CCL-131; Manassas, Va.). Cells were plated in Modified Eagle's Minimum Essential Media (Minimum essential medium (Eagle) with 2 mM L-glutamine and Earle's BSS adjusted to contain 1.5 g/L sodium bicarbonate, 0.1 mM non-essential amino acids, and 1.0 mM sodium pyruvate, 90%; fetal bovine serum, […]) in a 96-microwell format at 2×10^4 cells per well. Cells were maintained at 37 C. and 5% CO2 overnight before transfecting with CREB Locked Nucleic Acid (LNA) oligonucleotides.
Cells were transfected using Lipofectamine 2000 (hivitrogen, Carlsbad, Calif.) with modifications to the manufacturer's protocol. […]
The direct quantitation of CREB messenger RNA (mRNA) following transfection of antisense oligos, was detected using the QuantiGene Expression Kit according to the manufacturer's protocol (Bayer Corporation; Tarrytown, N.Y.). […] The luminescence of each well was measured in a Wallac Victor2 V (Perkin Elmer) plate luminometer at 45 C. […]

Consider `COc1ccc(C2CNC(=O)C2)cc1OC1CCCC1` (stereo not drawn) [rolipram], for which the “number of training sessions required to produce memory” value in the data set with normal mice was “reduced”. In addition, the “memory (five-day retention, % Freezing) after weak training” value in the data set with normal mice (weak training (2×), not strong training (5×), bilateral hippocampal injections (1 :l) immediately after training) is on record as “effect was established as predicted; also recorded: enhanced”.
Turning to “CCTCCgCCgCgTCACTCA (LNA modifications, as printed in the source, key not given here) [CREB1, CREB Locked Nucleic Acid (LNA) antisense oligonucleotide]”, the “knocking down human CREB RNA levels” value in the data set with human CREB RNA is recorded as “factional in knocking down human CREB RNA levels”.
In the case of “TggCACTgTTACAgTggT (LNA modifications, as printed in the source, key not given here) [CREB17, CREB LNA antisense oligonucleotide; single base mismatch to human]”, the “knocking down human CREB RNA levels” value in the data set with human CREB RNA was “factional in knocking down human CREB RNA levels”.
For “TggTCATTTAgTTACCggTg (as printed in the source, key not given here) [CREB3]”, in the data set with human CREB RNA, the “knocking down human CREB RNA levels” value was “factional in knocking down human CREB RNA levels”. Moreover, the “effect on endogenous CREB RNA levels” value in data set [1] is “reduces endogenous CREB RNA levels”.
